# Tests used:
# Assay type in all cases: biochemical
# [1] = target: T1, recombinant human baculovirus-expressed FGFR1 cytoplasmic domain (Homo sapiens, UniProt P11362); test: FGFR1 kinase inhibition assay (ELISA-based, time-resolved fluorescence); conditions: 1 uM compound; 20 μM ATP
# T1 construct: recombinant human baculovirus-expressed FGFR1 cytoplasmic domain; host or cells: baculovirus expression system
# Description: Inhibition of Fibroblast Growth Factor Receptor-1 (FGFR1) Kinase Activity
# The FGFR1 kinase activity was measured using an ELISA-based format in a 96-well FluoroNUNC Maxisorp plate with a time-resolved fluorescence readout as described for trkA kinase. The plate was coated with 100 μl/well of substrate solution (recombinant human PLC-γ/GST) at a concentration of 10 μg/ml in Tris buffered saline (TBS). The FDGFR1 activity was assayed in 100-μl assay micture containing 50 mM HEPES (pH 7.4), 20 μM ATP, 10 mM MnCl2, 0.1% BSA, 2% DMSO, and 15 ng/ml recombinant human baculovirus-expressed FGFR1 cytoplasmic domain (prephosphorylated prior to use). Compounds were screened for inhibition of the FGFR1 kinase activity at a conentration of 1 μM. The kinase reaction was allowed to proceed at 37° C. for 15 minutes. The detection antibody, europium-labeled anti-phosphotyrosine antibody (Wallace #CR04-100), was added at 1:5000 dilution in block buffer (3% BSA in TBST). After a 1-hour incubation at 37° C., 100 μl of enhancement solution (Wallac #1244-105) and the plate was gently agitated. After 5 min, the fluorescence of the resulting solutions measured using the BMG Fluostar (Model # 403).
# baculoviral GST-MLK1KD = target: T2, baculoviral GST-MLK1KD (Homo sapiens, UniProt P80192); test: Mixed Lineage Kinase-1 inhibition assay (Millipore Multiscreen TCA in-plate, 32P); conditions: for MLK-1 Kinase % inhibition @ 1 uM: 1 uM compound, 60 μM ATP; for inhibition at 1 µM: read-out: MLK-1 Kinase % inhibition @ 1 uM
# T2 construct: 1 μg/ml of baculoviral GST-MLK1KD; GST (N); host or cells: baculovirus expression system
# T2 sequence (P80192 144-412 limits assumed): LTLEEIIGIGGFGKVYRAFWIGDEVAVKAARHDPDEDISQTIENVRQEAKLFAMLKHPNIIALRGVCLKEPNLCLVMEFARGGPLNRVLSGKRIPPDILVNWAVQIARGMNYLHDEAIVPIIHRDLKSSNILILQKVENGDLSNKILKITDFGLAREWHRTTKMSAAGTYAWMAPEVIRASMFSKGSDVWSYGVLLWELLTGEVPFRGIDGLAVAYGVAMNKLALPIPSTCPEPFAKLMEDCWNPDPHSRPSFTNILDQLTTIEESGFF
# Description: Inhibition of Mixed Lineage Kinase-1 Activity
# The kinase activity of MLK1 was assessed using the Millipore Multiscreen TCA “in-plate” format as described for protein kinase C (Pitt & Lee, J. Biomol. Screening, 1: 47-51, 1996). Briefly, each 50-μl assay mixture contained 20 mM Hepes, pH 7.0, 1 mM EGTA, 10 mM MgCl2, 1 mM DTT, 25 mM β-glycerophosphate, 60 μM ATP, 0.25 μCi [γ-^32P]ATP, 0.1% BSA, 500 μg/ml myelin basic protein (UBI #13-104), 2% DMSO, 1 μM of test compound, and 1 μg/ml of baculoviral GST-MLK1KD. Samples were incubated for 15 min at 37° C. The reaction was stopped by adding ice cold 50% TCA and the protein were allowed to precipitate for 30 min at 4° C. The plates were then washed with ice cold 25% TCA. Supermix scintillation cocktail was added, and the plates were allowed to equilibrate for 1-2 hours prior to counting using the Wallac MicroBeta 1450 PLUS scintillation counter.
# baculoviral GST-MLK3KD = target: T3, baculoviral GST-MLK3KD (Homo sapiens, UniProt Q16584); test: Mixed Lineage Kinase-3 inhibition assay (Millipore Multiscreen plate, 32P); conditions: 1 uM compound, 100 μM ATP; for inhibition at 1 µM: read-out: MLK-3 Kinase % inhibition @ 1 uM
# T3 construct: 2 μg/ml of baculoviral GST-MLK3KD; GST (N); host or cells: baculovirus expression system
# T3 sequence (Q16584 117-379 limits assumed): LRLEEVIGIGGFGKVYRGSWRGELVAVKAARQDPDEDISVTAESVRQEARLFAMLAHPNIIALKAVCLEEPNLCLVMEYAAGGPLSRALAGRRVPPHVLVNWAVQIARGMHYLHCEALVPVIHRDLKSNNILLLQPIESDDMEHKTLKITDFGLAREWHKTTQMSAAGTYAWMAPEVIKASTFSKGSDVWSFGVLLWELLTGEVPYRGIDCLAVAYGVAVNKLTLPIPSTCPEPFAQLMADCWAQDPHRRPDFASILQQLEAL
# Description: Inhibition of Mixed Lineage Kinase-3 Activity
# Assays were performed using the Millipore Multiscreen plate format as described for MLK1. Briefly, each 50-μl assay mixture contained 20 mM Hepes, pH 7, 1 mM EGTA, 10 mM MgCl2, 1 mM DTT, 25 mM β-glycerophosphate, 100 μM ATP, 0.25 μCi [γ-^32P]ATP, 0.1% BSA, 500 μg/ml myelin basic protein (UBI #13-104), 2% DMSO, various concentrations of test compound, and 2 μg/ml of baculoviral GST-MLK3KD. Samples were incubated for 15 min at 37° C. The reaction was stopped by adding ice cold 50% TCA and the proteins were allowed to precipitate for 30 min at 4° C. The plates were then washed with ice cold 25% TCA. Supermix scintillation cocktail was added, and the plates were allowed to equilibrate for 1-2 hours prior to counting.
# [2] = target: T4, baculovirus-expressed human trkA cytoplasmic domain (Homo sapiens, UniProt P04629); test: trkA tyrosine kinase inhibition assay (ELISA-based); conditions: 1 uM compound; 40 μM ATP
# T4 construct: baculovirus-expressed human trkA cytoplasmic domain; host or cells: baculovirus expression system
# T4 sequence (P04629 440-796 limits assumed): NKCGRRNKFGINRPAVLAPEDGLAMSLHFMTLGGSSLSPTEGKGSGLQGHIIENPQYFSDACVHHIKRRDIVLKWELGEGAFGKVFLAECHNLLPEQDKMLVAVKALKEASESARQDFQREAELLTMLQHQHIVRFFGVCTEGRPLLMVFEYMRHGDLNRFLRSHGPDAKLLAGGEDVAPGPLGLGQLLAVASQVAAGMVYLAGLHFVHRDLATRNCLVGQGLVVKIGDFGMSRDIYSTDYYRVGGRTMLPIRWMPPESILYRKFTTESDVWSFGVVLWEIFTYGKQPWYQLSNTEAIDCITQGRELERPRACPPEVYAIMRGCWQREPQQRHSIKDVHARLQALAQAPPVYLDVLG
# Description: Inhibition of trkA Tyrosine Kinase Activity
# Selected heterocyclic substituted pyrazolones were tested for their ability to inhibit the kinase activity of baculovirus-expressed human trkA cytoplasmic domain using an ELISA-based assay as previously described (Angeles et al., Anal. Biochem. 236: 49-55, 1996). Briefly, a 96-well microtiter plate was coated with substrate solution (recombinant human phospholipase C-γl/glutathione S-transferase fusion protein (Rotin et al., EMBO J., 11: 559-567, 1992). Inhibition studies were performed in 100 μl assay mixtures containing 50 mM Hepes, pH 7.4, 40 μM ATP, 10 mM MnCl2, 0.1% BSA, 2% DMSO, and various concentrations of inhibitor. The reaction was initiated by addition of trkA kinase and allowed to proceed for 15 minutes at 37° C. An antibody to phosphotyrosine (UBI) was then added, followed by a secondary enzyme-conjugated antibody, alkaline phosphatase-labelled goat anti-mouse IgG (Bio-Rad). The activity of the bound enzyme was measured via an amplified detection system (Gibco-BRL). Inhibition data were analyzed using the sigmoidal dose-response (variable slope) equation in GraphPad Prism.
# T1 sequence (P11362 398-822 limits assumed): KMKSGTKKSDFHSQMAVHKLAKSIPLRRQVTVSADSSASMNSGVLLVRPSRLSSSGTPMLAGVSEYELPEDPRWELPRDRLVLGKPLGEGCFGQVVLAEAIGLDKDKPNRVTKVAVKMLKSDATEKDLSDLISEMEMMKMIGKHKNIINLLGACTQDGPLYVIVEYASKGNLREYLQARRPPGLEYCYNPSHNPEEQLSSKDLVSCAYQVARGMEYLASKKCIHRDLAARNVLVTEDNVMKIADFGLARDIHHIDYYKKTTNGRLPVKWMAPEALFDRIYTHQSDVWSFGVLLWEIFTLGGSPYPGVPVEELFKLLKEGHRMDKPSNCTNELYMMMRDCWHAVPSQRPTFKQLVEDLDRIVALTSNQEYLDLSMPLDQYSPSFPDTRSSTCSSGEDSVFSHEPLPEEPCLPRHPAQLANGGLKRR
Structure (SMILES),FGFR1 % inhibition @ 1 uM [1] [%],MLK-1 Kinase % inhibition @ 1 uM (baculoviral GST-MLK1KD) [%],MLK-3 Kinase % inhibition @ 1 uM (baculoviral GST-MLK3KD) [%],trkA % inhibition @ 1 uM [2] [%],inhibition at 1 µM [1] [%],inhibition at 1 µM (baculoviral GST-MLK1KD) [%],inhibition at 1 µM (baculoviral GST-MLK3KD) [%],inhibition at 1 µM [2] [%]
COC(=O)c1ccc2c(C=C3C(=O)NN=C3c3ccco3)c[nH]c2c1 [Compound 50],20,11,15,28,,,,
O=C1NN=C(c2ccoc2)C1=Cc1ccc[nH]1 [Compound 12],39,27,29,44,,,,
O=C1NN=C(c2ccco2)C1=Cc1c[nH]c2cccc(OCc3ccccc3)c12 [Compound 44],10,25,28,23,,,,
O=C1NN=C(c2ccoc2)C1=Cc1c[nH]c2ccc(Cl)cc12 [Compound 17],13,6,19,52,,,,
Cc1cc(C)c(C=C2C(=O)NN=C2c2csc(-c3ccccc3)n2)[nH]1 [Compound 40],22,33,22,27,,,,
O=C1NN=C(c2ccco2)C1=Cc1ncc[nH]1 [Compound 54],45,−12,0,20,,,,
Cc1oc(-c2ccc(Cl)cc2)cc1C1=NNC(=O)C1=Cc1c[nH]c2ccccc12 [Compound 42],32,−9,21,29,,,,
N#CCCn1cc(C=C2C(=O)NN=C2c2ccco2)c2ccccc21 [Compound 67],23,3,8,40,,,,
O=C1NN=C(c2ccoc2)C1=CC=C(c1ccccc1)c1ccccc1 [Compound 4],20,9,−6,53,,,,
O=C1NN=C(c2ccco2)C1=Cc1c[nH]c2ccc(Cl)cc12 [Compound 49],39,−10,21,56,,,,
Cc1ccc2c(C=C3C(=O)NN=C3c3ccco3)c[nH]c2c1 [Compound 46],25,13,36,29,,,,
Cc1nc[nH]c1C=C1C(=O)NN=C1c1ccco1 [Compound 53],50,7,12,20,,,,
O=C1NN=C(c2ccco2)C1=Cc1cn(Cc2ccccc2)c2ccccc12 [Compound 69],30,21,9,35,,,,
Cn1ccc(C2=NNC(=O)C2=Cc2c[nH]c3ccc(Cl)cc23)c1 [Compound 35],29,7,34,23,,,,
Cn1ccc(C2=NNC(=O)C2=Cc2c[nH]c3cccc(OCc4ccccc4)c23)c1 [Compound 31],17,27,49,39,,,,
O=C1NN=C(c2nccs2)C1=Cc1cn(CCOCc2ccccc2)c2ccccc12 [Compound 72],29,14,28,38,,,,
"Cc1cc(C)c(C=C2C(=O)NN=C2c2cc3ccccc3o2)[nH]1 [Compound 57, 3-benzo[d]furan-2-yl-4-[(3,5-dimethylpyrrol-2-yl)methylene]-2-pyrazolin-5-one]",,,,,-2,44,67,33
Cc1[nH]c(C=C2C(=O)NN=C2c2ccoc2)c(Br)c1Br [Compound 8],24,15,10,20,,,,
Cc1cccc2c(C=C3C(=O)NN=C3c3ccn(C)c3)c[nH]c12 [Compound 34],34,17,32,25,,,,
O=C1NN=C(c2ccoc2)C1=Cc1c[nH]c2ccc(OCc3ccccc3)cc12 [Compound 21],15,4,24,56,,,,
Cc1cc(C)c(C=C2C(=O)NN=C2c2cc(C)oc2C)[nH]1 [Compound 36],31,−9,25,40,,,,
Cn1ccc(C2=NNC(=O)C2=Cc2c[nH]c3ccc(F)cc23)c1 [Compound 32],4,5,42,8,,,,
Cc1cc(C)c(C=C2C(=O)NN=C2c2ccccn2)[nH]1 [Compound 30],27,2,46,22,,,,
Cn1ccc(C2=NNC(=O)C2=Cc2c[nH]c3ccccc23)c1 [Compound 24],39,10,38,22,,,,
Cc1cc(C)c(C=C2C(=O)NN=C2C2c3ccccc3Oc3ccccc32)[nH]1 [Compound 2],33,−8,−11,39,,,,
"O=C1NN=C(c2ccco2)C1=Cc1c[nH]c2ccccc12 [Compound 29, 3-(2-furyl)-4-(indol-3-ylmethylene)-2-pyrazolin-5-one]",,,,,41,21,38,43
"O=C1NN=C(c2nccs2)C1=Cc1c[nH]c2ccccc12 [Compound 25, 4-(indol-3-ylmethylene)-3-(1,3-thiazol-2-yl)-2-pyrazolin-5-one]",,,,,52,11,48,65

# Reference: patent US6831075B2, “Heterocyclic substituted pyrazolones” (Cephalon, Inc., priority 1999, dated 2004)
